Assay results from ChEMBL document CHEMBL3616368, “Induction of apoptosis by genipin inhibits cell proliferation in AGS human gastric cancer cells via Egr1/p21 signaling pathway” (Bioorg Med Chem Lett, 2015).
The source made the active and inactive calls. The calls are words filed in the database; no cut-off is given here.

Assays:
AGS [1] = assay: Cytotoxicity against human AGS cells assessed as reduction in cell viability after 6 hrs by MTT assay; type: functional, cell-based
HEK293 [2] = assay: Cytotoxicity against HEK293 cells assessed as reduction in cell viability at 12.5 to 100 uM after 6 hrs by MTT assay; type: cell-based; settings: human, hek293, 6 h
[3] = target: Early growth response protein 1 (Homo sapiens) (UniProt P18146); assay: Activation of Egr1 in human AGS cells assessed as increase in cleaved caspase-3 level at 100 uM by Western blot analysis in presence of caspase-3 inhibitor Ac-DEVD-CHO; type: cell-based
Early growth response protein 1 (Homo sapiens), sequence (P18146 whole entry, looked up): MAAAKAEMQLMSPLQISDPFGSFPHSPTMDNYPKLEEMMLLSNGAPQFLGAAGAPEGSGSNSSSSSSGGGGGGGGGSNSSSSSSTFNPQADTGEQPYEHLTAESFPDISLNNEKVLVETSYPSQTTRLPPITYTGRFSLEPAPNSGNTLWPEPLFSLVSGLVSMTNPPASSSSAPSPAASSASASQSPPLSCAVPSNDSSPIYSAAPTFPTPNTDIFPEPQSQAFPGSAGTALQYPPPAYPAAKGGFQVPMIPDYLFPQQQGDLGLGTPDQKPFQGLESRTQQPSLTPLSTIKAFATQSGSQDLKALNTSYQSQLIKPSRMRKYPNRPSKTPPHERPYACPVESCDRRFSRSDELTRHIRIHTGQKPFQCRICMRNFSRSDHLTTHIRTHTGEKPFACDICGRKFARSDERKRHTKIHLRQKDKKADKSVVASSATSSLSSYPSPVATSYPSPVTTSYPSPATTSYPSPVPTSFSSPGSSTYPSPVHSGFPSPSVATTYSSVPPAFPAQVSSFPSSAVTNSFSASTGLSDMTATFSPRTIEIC

[4] = target: Early growth response protein 1 (Homo sapiens) (UniProt P18146); assay: Activation of Egr1 in human AGS cells assessed as increase in cleaved caspase-3 level at 100 uM by Western blot analysis; type: cell-based
AGS [5] = assay: Cytotoxicity against human AGS cells assessed as cell viability at 100 uM after 6 hrs by MTT assay in presence of caspase-3 inhibitor Ac-DEVD-CHO; type: functional, cell-based
AGS [6] = assay: Cytotoxicity against human AGS cells assessed as cell viability at 100 uM after 6 hrs by MTT assay; type: functional, cell-based
[7] = target: Early growth response protein 1 (Homo sapiens) (UniProt P18146); assay: Activation of Egr1 in human AGS cells assessed as increase in cleaved PARP level at 100 uM by Western blot analysis; type: cell-based
[8] = target: Early growth response protein 1 (Homo sapiens) (UniProt P18146); assay: Activation of Egr1 in human AGS cells assessed as increase in cleaved caspase-9 level at 100 uM by Western blot analysis; type: cell-based
[9] = target: Early growth response protein 1 (Homo sapiens) (UniProt P18146); assay: Activation of Egr1 in human AGS cells assessed as increase in cleaved caspase-7 level at 100 uM by Western blot analysis; type: cell-based
HEK293 [10] = assay: Induction of apoptosis in HEK293 cells assessed as increase in cleaved PARP level at 100 uM by Western blot analysis; type: cell-based; settings: human, hek293, 100 µM
HEK293 [11] = assay: Induction of apoptosis in HEK293 cells assessed as increase in cleaved caspase-9 level at 100 uM by Western blot analysis; type: cell-based; settings: human, hek293, 100 µM
HEK293 [12] = assay: Induction of apoptosis in HEK293 cells assessed as increase in cleaved caspase-7 level at 100 uM by Western blot analysis; type: cell-based; settings: human, hek293, 100 µM
HEK293 [13] = assay: Induction of apoptosis in HEK293 cells assessed as increase in cleaved caspase-3 level at 100 uM by Western blot analysis; type: cell-based; settings: human, hek293, 100 µM
[14] = target: Early growth response protein 1 (Homo sapiens) (UniProt P18146); assay: Activation of Egr1 in human AGS cells assessed as increase in intracellular accumulation of reactive oxygen species at 100 uM by H2DCFDA probe-based flow cytometric analysis relative to control; type: cell-based
[15] = target: Early growth response protein 1 (Homo sapiens) (UniProt P18146); assay: Activation of Egr1 in human AGS cells assessed as increase in loss of mitochondrial membrane potential after 6 hrs by Rh-123 staining-based flow cytometric analysis relative to control; type: cell-based
AGS [16] = assay: Cell cycle arrest in human AGS cells assessed as accumulation at G0/G1 phase at 12.5 uM after 6 hrs by propidium iodide staining-based flow cytometric analysis (reference value: 52.82 +/- 2.87%); type: functional
AGS [17] = assay: Cell cycle arrest in human AGS cells assessed as accumulation at G0/G1 phase at 25 uM after 6 hrs by propidium iodide staining-based flow cytometric analysis (reference value: 52.82 +/- 2.87%); type: functional
AGS [18] = assay: Cell cycle arrest in human AGS cells assessed as accumulation at G0/G1 phase at 50 uM after 6 hrs by propidium iodide staining-based flow cytometric analysis (reference value: 52.82 +/- 2.87%); type: functional
AGS [19] = assay: Cell cycle arrest in human AGS cells assessed as accumulation at G0/G1 phase at 100 uM after 6 hrs by propidium iodide staining-based flow cytometric analysis (reference value: 52.82 +/- 2.87%); type: functional
AGS [20] = assay: Cell cycle arrest in human AGS cells assessed as accumulation at S phase at 12.5 uM after 6 hrs by propidium iodide staining-based flow cytometric analysis (reference value: 21.40 +/- 2.87%); type: functional
AGS [21] = assay: Cell cycle arrest in human AGS cells assessed as accumulation at S phase at 25 uM after 6 hrs by propidium iodide staining-based flow cytometric analysis (reference value: 21.40 +/- 2.87%); type: functional
AGS [22] = assay: Cell cycle arrest in human AGS cells assessed as accumulation at S phase at 50 uM after 6 hrs by propidium iodide staining-based flow cytometric analysis (reference value: 21.40 +/- 2.87%); type: functional
AGS [23] = assay: Cell cycle arrest in human AGS cells assessed as accumulation at S phase at 100 uM after 6 hrs by propidium iodide staining-based flow cytometric analysis (reference value: 21.40 +/- 2.87%); type: functional
AGS [24] = assay: Cell cycle arrest in human AGS cells assessed as accumulation at G2/M phase at 12.5 uM after 6 hrs by propidium iodide staining-based flow cytometric analysis (reference value: 23.05 +/- 3.15%); type: functional
AGS [25] = assay: Cell cycle arrest in human AGS cells assessed as accumulation at G2/M phase at 25 uM after 6 hrs by propidium iodide staining-based flow cytometric analysis (reference value: 23.05 +/- 3.15%); type: functional
AGS [26] = assay: Cell cycle arrest in human AGS cells assessed as accumulation at G2/M phase at 50 uM after 6 hrs by propidium iodide staining-based flow cytometric analysis (reference value: 23.05 +/- 3.15%); type: functional
AGS [27] = assay: Cell cycle arrest in human AGS cells assessed as accumulation at G2/M phase at 100 uM after 6 hrs by propidium iodide staining-based flow cytometric analysis (reference value: 23.05 +/- 3.15%); type: functional
AGS [28] = assay: Cell cycle arrest in human AGS cells assessed as accumulation at G2/M phase after 6 hrs by propidium iodide staining-based flow cytometric analysis; type: functional
[29] = target: Early growth response protein 1 (Homo sapiens) (UniProt P18146); assay: Activation of Egr1 in human AGS cells assessed as downregulation of cyclin A expression at 12.5 to 100 uM by Western blot analysis; type: cell-based
[30] = target: Early growth response protein 1 (Homo sapiens) (UniProt P18146); assay: Activation of Egr1 in human AGS cells assessed as downregulation of cyclin E expression at 12.5 to 100 uM by Western blot analysis; type: cell-based
[31] = target: Early growth response protein 1 (Homo sapiens) (UniProt P18146); assay: Activation of Egr1 in human AGS cells assessed as upregulation of protein expression by Western blot analysis; type: cell-based
[32] = target: Early growth response protein 1 (Homo sapiens) (UniProt P18146); assay: Activation of Egr1 in human AGS cells assessed as upregulation of p21 expression by Western blot analysis; type: cell-based
AGS [33] = assay: Upregulation of Egr1 mRNA expression in human AGS cells by RT-qPCR analysis; type: functional, cell-based
[34] = target: Early growth response protein 1 (Homo sapiens) (UniProt P18146); assay: Activation of Egr1 in human AGS cells assessed as upregulation of p21 mRNA expression by RT-qPCR analysis; type: cell-based
[35] = target: Early growth response protein 1 (Homo sapiens) (UniProt P18146); assay: Activation of Egr1 in human AGS cells assessed as upregulation of protein expression after 6 hrs by DAPI staining-based fluorescence microscopic analysis; type: cell-based
[36] = target: Early growth response protein 1 (Homo sapiens) (UniProt P18146); assay: Activation of Egr1 in human AGS cells assessed as induction of p21 promoter activity by dual luciferase reporter gene assay; type: cell-based
[37] = target: Early growth response protein 1 (Homo sapiens) (UniProt P18146); assay: Activation of Egr1 in human AGS cells assessed as induction of p21 promoter activity by ChIP assay; type: cell-based
[38] = target: Early growth response protein 1 (Homo sapiens) (UniProt P18146); assay: Activation of Egr1 in human AGS cells assessed as increase in interaction with p21 promoter by dual luciferase reporter gene assay; type: cell-based
[39] = target: Early growth response protein 1 (Homo sapiens) (UniProt P18146); assay: Activation of Egr1 in human AGS cells assessed as increase in interaction with p21 promoter by ChIP assay; type: cell-based
AGS [40] = assay: Upregulation of Egr1 mRNA expression in human AGS cells at 50 to 100 uM by RT-qPCR analysis in presence of si-Egr1 relative to control; type: functional, cell-based
[41] = target: Early growth response protein 1 (Homo sapiens) (UniProt P18146); assay: Activation of Egr1 in human AGS cells assessed as upregulation of p21 mRNA expression at 50 to 100 uM by RT-qPCR analysis in presence of si-Egr1 relative to control; type: cell-based
[42] = target: Early growth response protein 1 (Homo sapiens) (UniProt P18146); assay: Activation of Egr1 in human AGS cells assessed as upregulation of protein expression at 50 to 100 uM by Western blot analysis in presence of si-Egr1; type: cell-based
[43] = target: Early growth response protein 1 (Homo sapiens) (UniProt P18146); assay: Activation of Egr1 in human AGS cells assessed as upregulation of p21 expression at 50 to 100 uM by Western blot analysis in presence of si-Egr1; type: cell-based
[44] = target: Early growth response protein 1 (Homo sapiens) (UniProt P18146); assay: Activation of Egr1 in human AGS cells assessed as induction of p21 promoter activity at 12.5 to 100 uM by dual luciferase reporter gene assay in presence of si-Egr1; type: cell-based
[45] = target: Early growth response protein 1 (Homo sapiens) (UniProt P18146); assay: Activation of Egr1 in human AGS cells assessed as increase in cleaved caspase-3 level at 50 to 100 uM by Western blot analysis in presence of si-Egr1; type: cell-based
AGS [46] = assay: Cytotoxicity against human AGS cells assessed as cell viability at 100 uM after 6 hrs by MTT assay in presence of si-Egr1; type: functional, cell-based
[47] = target: Early growth response protein 1 (Homo sapiens) (UniProt P18146); assay: Activation of Egr1 in human AGS cells transfected with p21-pcDNA3 assessed as increase in cleaved PARP level at 50 to 100 uM by Western blot analysis; type: cell-based
AGS [48] = assay: Cytotoxicity against human AGS cells transfected with p21-pcDNA3 assessed as cell viability at 12.5 to 100 uM after 6 hrs by MTT assay relative to control; type: functional, cell-based
[49] = target: Early growth response protein 1 (Homo sapiens) (UniProt P18146); assay: Activation of Egr1 in human AGS cells transfected with p21-pcDNA3 assessed as increase in intracellular accumulation of reactive oxygen species at 100 uM by H2DCFDA probe-based flow cytometric analysis relative to control; type: cell-based

COC(=O)C1=CO[C@@H](O)[C@@H]2C(CO)=CC[C@H]12 [GENIPIN]
Activity (AGS [1]): Dose-dependent effect
Activity (HEK293 [2]): Non-toxic
Activity [3]: inactive
Activity [4]: Active
Activity (AGS [5]): inactive
Activity (AGS [6]): Active
Activity [7]: Active
Activity [8]: Active
Activity [9]: Active
Activity (HEK293 [10]): Non-toxic
Activity (HEK293 [11]): Non-toxic
Activity (HEK293 [12]): Non-toxic
Activity (HEK293 [13]): Non-toxic
Activity [14]: Active
Activity [15]: Dose-dependent effect
Activity (AGS [16]): 48.45%
Activity (AGS [17]): 42.33%
Activity (AGS [18]): 35.97%
Activity (AGS [19]): 36.88%
Activity (AGS [20]): 22.67%
Activity (AGS [21]): 24.66%
Activity (AGS [22]): 28.54%
Activity (AGS [23]): 27.48%
Activity (AGS [24]): 26.34%
Activity (AGS [25]): 30.53%
Activity (AGS [26]): 33.53%
Activity (AGS [27]): 33%
Activity (AGS [28]): Dose-dependent effect
Activity [29]: Active
Activity [30]: Active
Activity [31]: Dose-dependent effect
Activity [32]: Dose-dependent effect
Activity (AGS [33]): Dose-dependent effect
Activity [34]: Dose-dependent effect
Activity [35]: Dose-dependent effect
Activity [36]: Dose-dependent effect
Activity [37]: Dose-dependent effect
Activity [38]: Dose-dependent effect
Activity [39]: Dose-dependent effect
Activity (AGS [40]): inactive
Activity [41]: inactive
Activity [42]: inactive
Activity [43]: inactive
Activity [44]: inactive
Activity [45]: inactive
Activity (AGS [46]): inactive
Activity [47]: Active
Activity (AGS [48]): Active
Activity [49]: Active
